Reference: patent US20160089464A1, “MALODOR REDUCTION COMPOSITIONS” (The Procter & Gamble Company, priority 2014, published 2016)

Assay: Comment Code material properties: vapor pressure, ClogP, probability of ingredient color instability, odor detection threshold, melamine formaldehyde PMC headspace response ratio and leakage, liquid dish neat product liquid-air partition coefficient
Assay type: physicochemical
Conditions: Table 1 materials; each letter of the code is one property class (vapor pressure, ClogP, color instability, odor detection threshold, PMC headspace ratio, PMC leakage, liquid dish liquid-air partition coefficient)

Compound	Comment Code
C=C(C)C1CCC(C)(OC(C)=O)CC1 (stereo not shown) [Material 611]	BDHJK
C=C(C)C1CCC(C)(O)CC1 (stereo not shown) [Material 612]	BCGIJK
C=CC(=C)CCC=C(C)CCC=C(C)C=O [Material 613]	DHJK
C=C1C=CC(C(C)CCC=C(C)C)CC1 (stereo not shown) [Material 614]	DEFHJK
C=C(C)C1CCC2(C)CCCC(=C)C2C1 (stereo not shown) [Material 615]	BDEFGJK
C=C1C2CCC(C2)C1(C)CCC=C(C)CO (stereo not shown) [Material 616]	DEFHJK
CC1CCC2=C1CC1CCC2(C)C1(C)C (stereo not shown) [Material 621]	BDEFGJKL
CC1=CC2C(=C(C)CCCC2(C)C)CC1 (stereo not shown) [Material 625]	DEFHJKL
CC(C)=C1CCC(C)C2=C(C1)C(C)CC2 (stereo not shown) [Material 626]	DEFHJKL
COC(Cc1ccccc1)OC [Material 627]	DHJK
C=CC(=C)CCC=C(C)CCC=C(C)C [Material 628]	DEFHJK
C=C1CCC2C3C(C(C)C)CCC2(C)C13 (stereo not shown) [Material 631]	BDEFHJKL
C=C1CCC23CC1C(C)(C)C2CCC3C (stereo not shown) [Material 632]	BDEFGJKL
C=C1CCC=C(C)CCC2C1CC2(C)C (stereo not shown) [Material 633]	DEFHJKL
CC(=O)C=CC12OC1(C)CCCC2(C)C (stereo not shown) [Material 636]	BDEFHIJK
COc1c2ccoc2cc2oc(=O)ccc12 [Material 638]	CGJ
CC(C)(O)CCc1ccccc1 [Material 639]	CEFGJK
CCCCCCCCCCCC(=O)OCc1ccccc1 [Material 644]	DEFHJ
CC(C)(O)Cc1ccccc1 [Material 649]	BCEFGIK
O=C(/C=C/c1ccccc1)OCc1ccccc1 [Material 650]	DHJ
O=C(OCc1ccccc1)c1ccccc1 [Material 653]	DHJ

Compound	Comment Code
CC(C)CCc1ccc2c(c1)OCC(=O)CO2 [Material 658]	DHJ
CC(C)C1OCCC2(CC3CCC2(C)C3(C)C)O1 (stereo not shown) [Material 659]	DEFHJK
CC(C)=CCCC1=CCC(C#N)CC1 (stereo not shown) [Material 660]	DEFHJK
COC(=O)c1ccccc1N=CCC(C)CCCC(C)(C)O (stereo not shown) [Material 661]	DEFHJ
C=CC/C=C/CCC(=O)OC [Material 668]	ACEFHKL
CCCCCOC(=O)C=Cc1ccccc1 [Material 671]	DEFHJK
C[C@@H]1CC[C@H]2C(C)(C)[C@H]3C[C@@]12CC1OC(C)(C)OC13C (stereo partly shown) [Material 674]	DEFHJK
CC1(O)CCC2=C(CCCC2(C)C)C1 (stereo not shown) [Material 675]	DEFHJK
CC1(O)CCC2=C(CCCC2(C)C)C1 (stereo not shown) [Material 676]	DEFHJK
CCC(O)COC1CCCCC1C(C)(C)C (stereo not shown) [Material 677]	DEFHJK
CC1(C)CCC[C@@]2(C)[C@H]1CC[C@]13CO[C@](C)(CC[C@@H]12)O3 [Material 678]	DEFHJ
CC1C(C)(C)C2CCC3CC(C)(C)OC3C2C1(C)C (stereo not shown) [Material 679]	ADEFHJK
CC1C(C)(C)C2CCC3CC(C)(C)OC3C2C1(C)C (stereo not shown) [Material 680]	ADEFHJK
CC(C)[C@@]12CC(=O)[C@H](C)[C@@H]1C2 [Material 683]	ADEFGIJKL
CC(C)=C1CCC2=CC(=O)CC(C)C2(C)C1 (stereo not shown) [Material 684]	DHJK
CCC(=O)OC(C)(C)C1CC=C(C)CC1 (stereo not shown) [Material 686]	BDEFHJK
C=CC(C)=CCC=C(C)CCC=C(C)C=O [Material 691]	DHJK
C=C(C)C1CCC2(C)CCC=C(C)C2C1 (stereo not shown) [Material 692]	BDEFHJK
CC(C)=CCCC1(C)C2CC3C(C2)C31C (stereo not shown) [Material 693]	ADEFHJKL
CC(=CCCC1(C)C2CC3C(C2)C31C)CO (stereo not shown) [Material 694]	DEFHJK
C=CCCC(=O)C1=CCCC(C)(C)C1 [Material 697]	BDHJK

Compound	Comment Code
CC1=CC2C(CC1)C(C)=CCC2C(C)C (stereo not shown) [Material 698]	DEFHJKL
CCC(=O)C=CC1C(C)=CCCC1(C)C (stereo not shown) [Material 700]	BDHJK
C=C(C)C1CC=C(C)CC1 (stereo not shown) [Material 702]	ADEFGIJKL
CC(=O)C=CC1C(C)=CCC(C)C1(C)C (stereo not shown) [Material 704]	BDHJK
CC1=CCCC(C)=CCC(C)(C)C=CC1 [Material 706]	DEFHJK
C=C1CCCC(C)(C)C2C=C(C)CCC12 (stereo not shown) [Material 707]	BDEFHJK
CC1=C2C(CC1)C(C)CCC1C2C1(C)C (stereo not shown) [Material 708]	BDEFHJKL
C=C(C)C1CCC(C)C2=C(C1)C(C)CC2 (stereo not shown) [Material 709]	DEFHJKL
C=CC(C)=CCC=C(C)CCC=C(C)C [Material 710]	DEFHJK
C=C1CC2CCC1C2(C)C (stereo not shown) [Material 711]	ADEFGIJKL
CC1=CCCC2(C)CCC(C(C)(C)O)CC12 (stereo not shown) [Material 712]	DEFHJK
CC(C)=CCCC(C)c1ccc(C)cc1 (stereo not shown) [Material 713]	DEFHJK
CC1=CCC23C(C)CCC(C(C)C)C2C13 (stereo not shown) [Material 714]	ADEFHJKL
CC1=CC2C(C(C)C)CCC(C)(O)C2CC1 (stereo not shown) [Material 716]	DEFHJK
CC1=CC2C(CC1)C(C)=CCC2C(C)C (stereo not shown) [Material 717]	DEFHJKL
CC(C)=CCCC(C)(O)C1CC=C(C)CC1 (stereo not shown) [Material 718]	DFHJK
CC(C)=CCC=C(C)C1CC=C(C)CC1 (stereo not shown) [Material 719]	DEFHJK
CC(C)=CCCC1(C)C2CC=C(C)C1C2 (stereo not shown) [Material 720]	BDEFHJKL
CCCCCC(=Cc1ccccc1)CO [Material 721]	DEFHJ
CCCCCC(=Cc1ccccc1)COC(C)=O [Material 722]	DEFHJ
CCCCCC(=Cc1ccccc1)C(OCC)OCC [Material 723]	DEFHJ

Compound	Comment Code
CC1=CC2C(CC1)C(C)=CCC2C(C)C (stereo not shown) [Material 725]	DEFHJKL
CC1=CCCC2(C)CCC3CC12OC3(C)C (stereo not shown) [Material 726]	BDEFHJK
CC(C)=CCCC1=CCC(C)(C=O)CC1 (stereo not shown) [Material 727]	DFHJK
CCCC(O)Cc1ccccc1 (stereo not shown) [Material 730]	CEFHK
CCC(C)(O)CCc1ccccc1 (stereo not shown) [Material 731]	CEFHJK
COc1ccc(C=O)c(OC)c1OC [Material 733]	BCGI
COc1cc(OC)c(C=O)c(OC)c1 [Material 736]	BCGI
CCCCC=CC=CC=O [Material 738]	ACHKL
CC(C)CCCC(C)CCCC(C)C=O (stereo not shown) [Material 741]	BDFGJK
Cc1ccc(CC(C)C=O)cc1 (stereo not shown) [Material 742]	ACHJK
C=CCOC(=O)CCC1CCCCC1 [Material 746]	BDEFHJK
C=CCOC(=O)COCCC(C)C [Material 748]	BCEFGJK
C=C1CCC2C(C3C(C)CCC13)C2(C)C (stereo not shown) [Material 750]	BDEFHJKL
COC(=O)c1ccccc1N=CC1CC(C)=CC(C)C1 (stereo not shown) [Material 754]	DEFHJ
CC(C)=CCCC(C)CCCC(C)C=O (stereo not shown) [Material 757]	BDFHJK
CCCOC(C)OCCc1ccccc1 (stereo not shown) [Material 766]	CEFHJK
CCCOC(C)OCCC [Material 767]	ACEFGIKL
COCCOC(C)OCc1ccccc1 (stereo not shown) [Material 768]	BCEFHJK
CCCCCC(C=O)=Cc1ccc(C)cc1 [Material 769]	DHJ
C=CCCCCCCCC=O [Material 770]	ADHKL

Same assay, conditions: cell strings several class symbols together; each letter is one property class of L1

Compound	Comment Code
C=C1C2CCC(C2)C1(C)CCC=C(C)CO (stereo not shown) [Material 616]	DEFHJK
CC1(C)C2CCC3(CO3)C1C2 (stereo not shown) [Material 617]	ACEFGIJKL
C=C1C=CC(C(C)C)CC1 (stereo not shown) [Material 619]	ADEFGIJKL
CC1CCC2=C1CC1CCC2(C)C1(C)C (stereo not shown) [Material 621]	BDEFGJKL
COC(Cc1ccccc1)OC [Material 627]	DHJK
C=C1CCC2C3C(C(C)C)CCC2(C)C13 (stereo not shown) [Material 631]	BDEFHJKL
C=C1CCC23CC1C(C)(C)C2CCC3C (stereo not shown) [Material 632]	BDEFGJKL
CC(=O)CCc1ccccc1 [Material 640]	ACEFGIK
O=C(OCc1ccccc1)c1ccccc1O [Material 641]	DFGJ
CC(C)CC(=O)OCc1ccccc1 [Material 645]	BDEFHJK
CC(C)C(=O)OCc1ccccc1 [Material 647]	BCHJK
OCc1ccccc1 [Material 652]	ACEFGIKL
CC(C)C1OCCC2(CC3CCC2(C)C3(C)C)O1 (stereo not shown) [Material 659]	BDEFHJK
CC(OC=O)C1CCCC(C)(C)C1 (stereo not shown) [Material 662]	ADEFHIJKL
COc1ccc(COC(C)=O)cc1 [Material 664]	BCEFGK
COc1ccc(COC=O)cc1 [Material 665]	BCEFGK
CCCCCOC(=O)c1ccccc1 [Material 672]	DEFHJK
C[C@@H]1CC[C@H]2C(C)(C)[C@H]3C[C@@]12CC1OC(C)(C)OC13C (stereo partly shown) [Material 674]	DEFHJK
CC1(C)CCC[C@@]2(C)[C@H]1CC[C@]13CO[C@](C)(CC[C@@H]12)O3 [Material 678]	DEFHJ

Compound	Comment Code
CC1C(C)(C)C2CCC3CC(C)(C)OC3C2C1(C)C (stereo not shown) [Material 679]	DEFHJK
CC1C(C)(C)C2CCC3CC(C)(C)OC3C2C1(C)C (stereo not shown) [Material 680]	ADEFHJK
CC(C)=C1CCC2=CC(=O)CC(C)C2(C)C1 (stereo not shown) [Material 684]	DHJK
CC(=O)OC(C)(C)C1CC=C(C)CC1 (stereo not shown) [Material 687]	BDHJK
CC(=CCCC1(C)C2CC3C(C2)C31C)CO (stereo not shown) [Material 694]	DEFHJK
CC(O)CCC1CCCCC1 (stereo not shown) [Material 699]	BDEFHIK
CC(C=O)=Cc1ccccc1 [Material 701]	ACHIK
CC(=O)C(C)=CC1C(C)=CCCC1(C)C (stereo not shown) [Material 703]	BDHIJK
CC1=C2C(CC1)C(C)CCC1C2C1(C)C (stereo not shown) [Material 708]	BDEFHJKL
CC1=CCCC2(C)CCC(C(C)(C)O)CC12 (stereo not shown) [Material 712]	DEFHJK
CC1=CCC23C(C)CCC(C(C)C)C2C13 (stereo not shown) [Material 714]	ADEFHJKL
CC1=CCCC2(C)CCC3CC12OC3(C)C (stereo not shown) [Material 726]	BDEFHJK
COC1=C(C)OC(C)C1=O (stereo not shown) [Material 740]	ACEFGIJKL
C=CCOC(=O)COc1ccccc1 [Material 743]	BCGK
C=CCOCCc1ccccc1 [Material 744]	ACEFHK
C=C1CCC2C(C3C(C)CCC13)C2(C)C (stereo not shown) [Material 750]	BDEFHJKL
CCC(=O)N(CC)c1cccc(C)c1 [Material 755]	CEFHJK
CC(=O)C(C)O (stereo not shown) [Material 760]	ACEFGIKL
COc1ccc(C(C)=O)cc1 [Material 761]	BCEFHIK
